Values quoted from earlier work, collected in patent US20230323509A1, “Weak Acid Lixiviants for Recovery of Alkaline Earth Metals” (LIXIVIA, INC., priority 2020, published 2023).
Like-named read-outs stand apart in the source and are kept apart here.

[1] = acid listed without dissociation step index

SMILES | pKa [1] | pKa (dissociation step (2)) | pKa (dissociation step (1))
CC#CC(=O)O [2-butynoic acid] | 2.62 |  | 
CCC(=O)C(=O)O [2-oxobutanoic acid] | 2.5 |  | 
CC(O)CC(=O)O (stereo not shown) [3-hydoxybutanoic acid] | 4.7 |  | 
CCOCC(=O)O [ethoxyacetic acid] | 3.65 |  | 
O=C(O)CCCC(=O)O [glutaric acid] |  | 5.42 | 4.32
CC(C(=O)O)C(=O)O [methylmalonic acid] |  |  | 3.07
CC(CC(=O)O)C(=O)O (stereo not shown) [methylsuccinic acid] |  | 5.64 | 4.13

Now from value to compound, other results behind:

pKa [1] | pKa (dissociation step (2)) | SMILES | pKa (dissociation step (1))
 | 4.37 | O=C(O)CC(=O)C(=O)O [oxaloacetic acid] | 2.55
4.83 |  | CCCCC(=O)O [pentanoic acid] | 
3.89 |  | O=c1[nH]c(=O)c2[nH]c(=O)[nH]c2[nH]1 [uric acid] | 
